Measurements: paper PMC6971011, “Conformational changes in Apolipoprotein N-acyltransferase (Lnt)” (Scientific Reports, 2020)

Target: T1, Apolipoprotein N-acyltransferase (Lnt); Lnt-C1, Lnt-C2 (Escherichia coli, UniProt P23930)
T1 construct: full length; C1: fifteen-residue C-terminal tail with His8-tag kept; C2: N-terminal His6-tag TEV-cleaved, two extra N-terminal residues; expressed in E. coli C41, detergent-purified
Experiment: X-ray crystallography ([…] Å) and LC-MS/MS of tryptic peptide
Type: binding
Details: covalent; thioester on active site C387 (acyl-enzyme intermediate, co-purified from expression host); Lnt-C1 chain B; vapor diffusion, pH 6.4

## CCCCCCCCCCCCCCCC(=O)O [palmitate]
  X-ray crystallography (3.5 Å) and LC-MS/MS of tryptic peptide: mass spectrometry analysis (Fig. 3D) on purified Lnt that identified a palmitoyl modification at position C387
